One experiment has as its system Jurkat T cells. In words: IL-2 production in Jurkat T cells in response to anti-CD3/anti-CD28 antibody stimulation. The class given is cell-based. As to conditions: Homo sapiens, read-out: Cellular activity grade (Jurkat) (Cellular IC50).
The test system of experiment [1] is A549 human lung epithelium cell line. The experiment can be described thus: RANTES production in response to TNF-α from A549 cells. The class given is cell-based. As to conditions: Homo sapiens, A549, A549 cells, 100 ng/ml TNF-α, read-out: Cellular activity grade (A549) (Cellular IC50). In outline: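 Cells (4×10^4/well) in D-MEM/10% FCS preincubated 1 h at 37 °C with compound in 1% DMSO, then stimulated with 100 ng/ml TNF-α for 24 h. Supernatant RANTES quantified by Eu-labelled sandwich immunoassay (time-resolved fluorescence, ex 340/em 615 nm) against recombinant human RANTES standard.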

Counter-ions that a name gives are not always drawn.

These results are taken from patent US6984649B1, “Pyridine derivatives” (Bayer Aktiengesellschaft, priority 2000, dated 2006).

On to `Cc1c(C2CCCNC2)cc(-c2ccccc2O)nc1N` (stereo not shown) [Example 14-1, 2-[6-amino-5-methyl-4-(3-piperidinyl)-2-pyridinyl]phenol hydrochloride], for which the IC50 was 1 to 10 µM in the experiment on Jurkat T cells and less than 1 µM in experiment [1].
The corresponding values for `O=C1Nc2nc(-c3ccccc3O)cc(C3CCCNC3)c2CO1` (stereo not shown) [Example 18-2, 7-(2-hydroxyphenyl)-5-(3-piperidinyl)-1,4-dihydro-2H-pyrido[2,3-d][1,3]oxazin-2-one hydrochloride] are 1 to 10 µM and less than 1 µM.

The term IC50 denotes the concentration at which inhibition is half-maximal.
